Among the test systems are HOP-18 NSCLC; LXFL 529 NSCLC; DMS 273 small cell lung; M19-MEL melanoma; DMS 114 small cell lung; DLD-1 colon; SNB-78 CNS; KM20L2 colon; XF 498 CNS; RXF-631 renal.
What all share (experiment): DTP human tumour cell line panel, 48 h

SMILES strings stand for the structures.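 Dose response: 5 concentrations. Exposure: 48 h. Format: 96-well plates. Endpoint: linear interpolation; highest concentration if not reached. At the TGI there is no net growth.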

For orientation: TGI means the concentration at which net growth stops. Read a high TGI as less potent growth arrest.

In the case of `COc1ccc(C2S/C(=C\c3cccc([N+](=O)[O-])c3)C(=O)N2NC(=O)Cc2ccccc2)cc1` (stereo not given), the total growth inhibition concentration (TGI) in the test on HOP-18 NSCLC, with LXFL 529 NSCLC, with DMS 273 small cell lung, in the test on M19-MEL melanoma, in the test with DMS 114 small cell lung and in the test on DLD-1 colon was above 100 µM throughout.

Take `CC1=NN(c2ccccc2)C(=O)C1C(=O)C(=O)Nc1ccc(C)cc1C` (stereo not given): the concentration for total growth inhibition (TGI) in the test with HOP-18 NSCLC, with SNB-78 CNS, in the test with LXFL 529 NSCLC, in the test on DMS 273 small cell lung, in the test on M19-MEL melanoma and with KM20L2 colon was above 100 µM each time. Besides, the TGI with DMS 114 small cell lung and in the test with DLD-1 colon was above 100 µM in each case.

In the case of `C/C(CN1C(=O)c2ccccc2C1=O)=N\NS(C)(=O)=O`, the TGI with HOP-18 NSCLC, in the test on SNB-78 CNS, with LXFL 529 NSCLC, with XF 498 CNS, in the test on DMS 273 small cell lung and with M19-MEL melanoma was above 100 µM throughout. For the same compound, the TGI with KM20L2 colon, with DMS 114 small cell lung and with DLD-1 colon was above 100 µM in each case.

Take `C=CCn1c(=S)sc2c(=O)[nH]cnc21`: the TGI in the test on SNB-78 CNS, in the test with LXFL 529 NSCLC, in the test with XF 498 CNS, with DMS 273 small cell lung, in the test with M19-MEL melanoma and with KM20L2 colon was above 100 µM throughout. For the same compound, the TGI in the test on DMS 114 small cell lung and in the test on DLD-1 colon was above 100 µM throughout.

With `Clc1ccc(CCn2cncn2)c(Cl)c1`, the total growth inhibition concentration (TGI) in the test on HOP-18 NSCLC, in the test on SNB-78 CNS, with LXFL 529 NSCLC, in the test on DMS 273 small cell lung, in the test on M19-MEL melanoma and in the test with KM20L2 colon was above 100 µM each time. The TGI with DMS 114 small cell lung and in the test on DLD-1 colon was above 100 µM each time.

On to `COC1=CC(=O)C2[C@H]3Cc4ccccc4[C@H]3C2(C)C1=O` (stereo not given in full), for which the TGI in the test with SNB-78 CNS, in the test with RXF-631 renal, in the test with LXFL 529 NSCLC, with XF 498 CNS, in the test with DMS 273 small cell lung and with M19-MEL melanoma was above 100 µM in each case. The total growth inhibition concentration (TGI) in the test on KM20L2 colon and with DLD-1 colon was above 100 µM throughout.

With `COc1cc([C@@H]2c3cc4c(cc3[C@@H](NC(=O)c3ccc([N+](=O)[O-])cc3)C3COC(=O)[C@@H]32)OCO4)cc(OC)c1O` (stereo not given in full), the TGI with HOP-18 NSCLC was above 100 µM; with SNB-78 CNS it was 75.5 µM; in the test on RXF-631 renal, 4.48 µM; with LXFL 529 NSCLC, above 100 µM; in the test on XF 498 CNS, 0.964 µM; in the test on DMS 273 small cell lung, 3.54 µM. Besides, the total growth inhibition concentration (TGI) in the test on M19-MEL melanoma stood at 19 µM; in the test on KM20L2 colon it was 3.73 µM; in the test on DMS 114 small cell lung, 2.35 µM; in the test with DLD-1 colon, 11.3 µM.

As to `C/C(CC(=O)Nc1ccc([N+](=O)[O-])cc1)=N/N=C(N)N`, the concentration for total growth inhibition (TGI) in the test on SNB-78 CNS, in the test with RXF-631 renal, in the test with LXFL 529 NSCLC, in the test with XF 498 CNS, with DMS 273 small cell lung and with M19-MEL melanoma was above 100 µM throughout. The TGI in the test with KM20L2 colon, in the test on DMS 114 small cell lung and in the test with DLD-1 colon was above 100 µM in each case.

For the compound `O=C1CSc2ccncc2N1`, the total growth inhibition concentration (TGI) with LXFL 529 NSCLC, in the test on XF 498 CNS, in the test with DMS 273 small cell lung, in the test on M19-MEL melanoma, in the test on KM20L2 colon and in the test with DMS 114 small cell lung was above 100 µM throughout. The same compound came in with a total growth inhibition concentration (TGI) in the test with DLD-1 colon above 100 µM.

Consider `CCCN1CN(C(C(=O)N[C@@H]2C(=O)N3C(C(=O)O)=C(C)CSC23)c2ccccc2)CSC1=S` (stereo not given in full), for which the TGI with HOP-18 NSCLC, with SNB-78 CNS, in the test on LXFL 529 NSCLC, in the test on DMS 273 small cell lung, with M19-MEL melanoma and in the test with KM20L2 colon was above 100 µM each time. The TGI in the test with DLD-1 colon is above 100 µM.

Values taken from PubChem BioAssay (NCI).
